For one data set, the target named is T1, caspase 6 (Homo sapiens, UniProt P55212).
T1 sequence (P55212 24-179 limits assumed): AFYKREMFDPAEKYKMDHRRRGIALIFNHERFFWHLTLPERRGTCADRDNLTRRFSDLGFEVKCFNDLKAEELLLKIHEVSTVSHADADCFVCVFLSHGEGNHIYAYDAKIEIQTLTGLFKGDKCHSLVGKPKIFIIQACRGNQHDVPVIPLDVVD
T1 sequence (P55212 194-293 limits assumed): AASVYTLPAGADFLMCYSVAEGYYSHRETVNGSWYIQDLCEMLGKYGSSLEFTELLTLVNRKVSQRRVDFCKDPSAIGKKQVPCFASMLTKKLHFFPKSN
Briefly: commercial panel of caspases (Reaction Biology Corporation), caspase 6. The data set is classed as biochemical. The following applies: read-out: IC50 versus caspase 6. From the text: (§1) Having established that the compounds (3), (4) and (16) are potent inhibitors of caspase 1, the selectivity of these agents was examined. […] Wannamaker, W.; Davies, R.; Namchuk, M.; Pollard, J.; Ford, P.; Ku, G.; Decker, C.; Charifson, P.; Weber, P.; Germann, U. A.; Kuida, K.; Randle, J. C. R. J. Pharmacol. Exp. Ther. 2007, 321, 509-516. […] VRT-043198 (2b), NCGC00185682 (3), NCGC00183434 (4) and NCGC00183681 (16) were entered within a commercial panel of caspases offered by Reaction Biology Corporation. […] A particularly interesting aspect of these molecules was the high selectivity for caspase 1. […] All other activities were about the 1 μM threshold.

Another data set concerns the target T2, caspase 14 (Homo sapiens, UniProt P31944).
T2 construct: purchased Reaction Biology Corporation
T2 sequence (P31944 6-146 limits assumed): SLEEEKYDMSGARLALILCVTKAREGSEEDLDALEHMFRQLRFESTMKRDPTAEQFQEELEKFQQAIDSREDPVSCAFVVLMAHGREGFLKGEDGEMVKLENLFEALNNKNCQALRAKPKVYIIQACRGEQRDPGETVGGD
T2 sequence (P31944 153-242 limits assumed): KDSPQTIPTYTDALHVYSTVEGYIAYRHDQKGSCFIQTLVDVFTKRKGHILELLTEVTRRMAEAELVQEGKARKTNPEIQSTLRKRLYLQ
Briefly: commercial panel of caspases (Reaction Biology Corporation), caspase 14. The format is biochemical. As to conditions: read-out: IC50 versus caspase 14.
Excerpt: as §1

A short description of data set [1]: microsomal stability (both human and rat). The format is in vitro ADME. As to conditions: liver microsomes, species not given. The protocol: Given the aqueous stability of these new agents, selected ADME properties for chosen compounds were also examined. VX-765 (1), VRT-043198 (2b), NCGC00185682 (3), NCGC00183434 (4) and NCGC00183681 (16) were evaluated for a profile of bi-directional Caco-2 permeability, plasma protein binding (both human and rat) and microsomal stability (both human and rat) studies (FIG. 9, Table 2). […] The clearance rates (Clint) and t ½ for VRT-043198 (2b), NCGC00185682 (3), NCGC00183434 (4) and NCGC00183681 (16) were all moderate.

A further data set deals with T3, caspase 1 (Homo sapiens, UniProt P29466).
T3 sequence (P29466 120-297 limits assumed): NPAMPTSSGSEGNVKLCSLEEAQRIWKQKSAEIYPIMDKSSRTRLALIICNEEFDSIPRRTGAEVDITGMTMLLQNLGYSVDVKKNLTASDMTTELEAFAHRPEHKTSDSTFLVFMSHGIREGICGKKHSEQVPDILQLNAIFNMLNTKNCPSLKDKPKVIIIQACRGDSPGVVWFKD
T3 sequence (P29466 317-404 limits assumed): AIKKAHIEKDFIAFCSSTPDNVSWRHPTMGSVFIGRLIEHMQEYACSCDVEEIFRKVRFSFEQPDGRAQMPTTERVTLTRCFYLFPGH
The following applies: reported by Randle and coworkers (Wannamaker et al. 2007); read-out: Ki versus caspase 1; cited from earlier work.

For a further data set, the target named is T4, caspase 4 (Homo sapiens, UniProt P49662).
T4 construct: purchased Reaction Biology Corporation
T4 sequence (P49662 81-270 limits assumed): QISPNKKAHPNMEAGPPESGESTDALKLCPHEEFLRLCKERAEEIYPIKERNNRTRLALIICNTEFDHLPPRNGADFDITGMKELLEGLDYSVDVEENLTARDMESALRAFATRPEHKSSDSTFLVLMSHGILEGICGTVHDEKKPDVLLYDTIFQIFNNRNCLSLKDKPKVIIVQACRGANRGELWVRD
T4 sequence (P49662 290-377 limits assumed): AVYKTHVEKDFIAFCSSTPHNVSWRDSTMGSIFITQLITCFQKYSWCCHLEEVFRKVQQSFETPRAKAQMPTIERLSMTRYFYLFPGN
The following applies: reported by Randle and coworkers (Wannamaker et al. 2007); read-out: Ki versus caspase 4; cited from earlier work.

For another data set, the target named is T5, caspase 9 (Homo sapiens, UniProt P55211).
T5 construct: purchased Reaction Biology Corporation
T5 sequence (P55211 1-315 limits assumed): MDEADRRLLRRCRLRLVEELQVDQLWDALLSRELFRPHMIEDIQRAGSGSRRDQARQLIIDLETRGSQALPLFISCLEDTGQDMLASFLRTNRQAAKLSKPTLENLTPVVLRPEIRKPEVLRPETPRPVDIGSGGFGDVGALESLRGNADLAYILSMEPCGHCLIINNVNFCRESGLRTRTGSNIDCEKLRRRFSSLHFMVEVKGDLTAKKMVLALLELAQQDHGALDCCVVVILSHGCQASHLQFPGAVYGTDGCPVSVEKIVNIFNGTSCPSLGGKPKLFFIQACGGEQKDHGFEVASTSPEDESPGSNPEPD
T5 sequence (P55211 331-416 limits assumed): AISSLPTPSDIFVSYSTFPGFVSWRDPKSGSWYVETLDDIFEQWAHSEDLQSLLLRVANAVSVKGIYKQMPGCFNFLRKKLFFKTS
The following applies: reported by Randle and coworkers (Wannamaker et al. 2007); read-out: Ki versus caspase 9; cited from earlier work.

The subject of data set [2] is caspases 3, 7, granzyme B, cathepsin B and tyrpsin. The following applies: reported by Randle and coworkers; cited from earlier work.

The values below come from patent US9365612B2, “Caspase inhibitors” (United States of America as represented by the Secretary, …, priority 2010, dated 2016).

Some results are limits rather than exact numbers.

`CC(C)(C)[C@H](NC(=O)c1ccc(N)c(Cl)c1)C(=O)N1CCC[C@H]1C(=O)N[C@H](C=O)CC(=O)O` [VRT-043198 (2b), reference compound]: the IC50 at caspase 6 was greater than 10000 nM; on caspase 14 it was 58.5 nM. Moreover, the “clearance rates (Clint)” value in data set [1] is given as “moderate”. The “t ½” value in data set [1] is “moderate”. For the same molecule, the inhibition constant Ki on caspase 1 was less than 1 nM; on caspase 4 it was less than 1 nM; on caspase 9, 1030 nM. The “activity versus the remaining targets” value in data set [2] is on record as “little activity”.
